Each structure is given as a SMILES string.

Data set [1] deals with mice, 29 Gy upper body irradiation plus GFP+ male marrow. The experiment in a line: Survival after 29 Gy upper body irradiation with GFP+ marrow injection on day 5. Type of data set: in vivo, mouse. To be noted: given before 29 Gy; GFP+ marrow i.v. day 5; p=0.0315 (MnSOD-PL), p=0.0462 (JP4-039/F15). From the text: (§1) Bone marrow transplantation, esophageal excision and cell sorting. Five days after irradiation, the time shown to optimize marrow cell homing to the irradiated esophagus, mice received intravenous injection of 1.0×10^7 C57BL/6HNsd GFP+ male bone marrow cells prepared as single-cell suspension from donor male mice according to published methods (Niu Y, et al. Irradiated esophageal cells are protected from radiation-induced recombination by MnSOD gene therapy. Rad Res 173: 453-461, 2010 and Niu Y, et al. Intraesophageal MnSOD-plasmid liposome administration enhances engraftment and self-renewal capacity of bone marrow derived progenitors of esophageal squamous epithelium. Gene Therapy 15: 347-356, 2008). At serial time points after marrow transplantation, esophagus specimens were removed, and single cell suspensions prepared according to published methods (Id.). The esophagus cell suspensions were sorted for GFP+ cells. The number of GFP+ cells per 10^6 was calculated as described previously (Id.). (GFP+) cells were placed on slides, and stained for detection of donor cell markers (Id.).
Intraesophageal JP4-039/formulation improves survival through recovery of endogenous esophageal progenitor cells. […] Five groups of 15 mice each received 29 Gy to the upper body. One group received MnSOD-PL 24 hours prior to irradiation.

The test system of data set [2] is Lewis lung carcinoma cells (3LL). The experiment in a line: Irradiation of mice with orthotopic 3LL lung tumors. It counts as in vivo, mouse. From the text: A separate group of mice received intratracheal administration of 1×10^6 Lewis lung carcinoma cells (3LL) seven days prior to administration of JP4-039, followed immediately by excision of lung tissue to calculate JP4-039 uptake by cancer cells.
This dose of irradiation was chosen to reduce tumor growth but was below the level required for lethal esophagitis. […] Control tumor-bearing mice received no irradiation.

The test system of data set [3] is GFP+ cells in the esophagus. Put plainly: GFP+ marrow-derived cells in the irradiated esophagus (cell sorting). It counts as in vivo, mouse.
Excerpt: FIGS. 18A-F. Detection of GFP+ marrow-derived cells in the irradiated mouse esophagus after intravenous transplant. Mice were irradiated to 29 Gy to the esophagus on day 0, and then injected with 1×10^7 GFP+ marrow cells intravenously on day 5 according to published methods (Epperly M W, et al. Int J Cancer (Radiat Oncol Invest) 96: 221-233, 2001; Epperly M W, et al. In Vivo 19: 997-1004, 2005; and Epperly M W, et al. Protection of esophageal stem cells from ionizing irradiation by MnSOD-plasmid liposome gene therapy. In Vivo 19: 965-974, 2005). Five esophagus samples were removed from each animal in the various subgroups on days 1 (FIG. 18A), 3 (FIG. 18B), 7 (FIG. 18C), 14 (FIG. 18D), 28 (FIG. 18E) and 60 (FIG. 18F) after marrow injection. Samples of excised esophagi were prepared as single cell suspensions and then analyzed by cell […] for GFP+ cells/106 esophagus cells. Each symbol represents one esophagus.
as §1
Statistics. In vitro data analysis and estimation of survival of mice were performed using published statistical methods (Epperly M W, et al. Radiat Res 155: 2-14, 2001). The Kruskal-Wallis test and post-hoc Mann-Whitney test were used to evaluate donor marrow cells in the esophagus as described (Niu Y, et al. Rad Res 173: 453-461, 2010). A SAS statistical program was used to perform the statistical analysis (SAS Institute, Cary, N.C., USA).

Data set [4] is described as follows: JP4-039 uptake in normal tissue and orthotopic tumors after intraesophageal administration (EPR). It counts as in vivo, mouse. As to the method: Lastly, to determine whether JP4-039 was taken up by other tissue, esophagus, lung orthotopic tumor, liver, and peripheral blood samples were taken 10, 30, and 60 minutes after intraesophageal administration of the compound. Samples were snap-frozen on dry ice and JP4-039 content was quantified by EPR analysis.
To determine if the orally-administered JP4-039 also reached other tissues and orthotopic tumors, esophagus, peripheral blood, bone marrow, liver, and 3LL orthotopic tumors were harvested at 10, 30, and 60 minutes after intraesophageal administration of JP4-039, followed by quantification by EPR. […] JP4-039 levels in peripheral blood and orthotopic tumor peaked at 30 minutes at 51.1 and 276.0 pmol/mg protein, respectively. […] Lower levels of JP4-039 were detected in bone marrow up to 60 minutes after drug swallow compared to levels in liver and tumor tissue.

In data set [5] the test system is 32D cl 3 mouse hematopoietic progenitor cell line. The experiment in a line: Irradiation survival curves of 32D cl 3 cells (colony assay). It counts as cell-based. To be noted: for ñ (shoulder on the survival curve): 0 to 8 Gy. Here is the method:
Groups of 15 mice received intraperitoneal injection of 10 mg. per kilogram of each indicated GS-nitroxide compound or carrier (Cremphora plus alcohol at 1 to 1 ratio, then diluted 1 to 10 in distilled water). Mice received 10 mg per kilogram intra-peritoneal injection 24 hours prior to total body irradiation. Control mice received radiation alone. […] (P=0.0005) FIG. 6 is a graph showing that GS-nitroxide JP4-039 is an effective hematopoietic cell radiation mitigator when delivered 24 hr after irradiation. Irradiation survival curves were performed on cells from the 32D cl 3 mouse hematopoietic progenitor cell line, incubated in 10 μM JP4-039 for 1 hour before irradiation, or plated in methylcellulose containing 10 μM […] after irradiation. Cells were irradiated from 0 to 8 Gy, plated in 0.8% methylcellulose containing media, and incubated for 7 days at 37° C. Colonies of greater than 50 cells were counted and data analyzed by linear quadratic and single-hit, multi-target models.

Data set [6] is described as follows: Uptake of swallowed JP4-039 in esophageal SP cells incl. GFP+ marrow chimeric mice. Type of data set: in vivo, mouse.
Where [7] appears, read: intraesophageal, F15 formulation.

For `CC(C)C[C@@H](/C=C/CC(=O)NC1CC(C)(C)N([O])C(C)(C)C1)NC(=O)OC(C)(C)C` [JP4-039, TEMPO-4-yl-(S,E)-5-(tert-butoxycarbonylamino)-7-methyloct-3-enamide], the survival entry in data set [1] is “improved survival”. The “protection of orthotopic 3LL cells from irradiation” value in data set [2] (4 μg in 110 μl F15, 10 minutes before 0 or 15 Gy upper-body irradiation) is “did not protect 3LL cells from irradiation”. Besides, the “survival of 3LL tumor-bearing mice compared to F15 alone” value in data set [2] (prior to 20 Gy thoracic irradiation, p=0.3693) was “did not survive significantly differently”. Further, the “number of GFP+ cells per 10^6 cells in the esophagus, median (inter-quartile range)” value was 0.5 (0-1.6) per 10^6 cells in data set [3] (29 Gy + JP4-039 (after irradiation), day 1); 1.5 (0.5-1.7) per 10^6 cells in data set [3] (29 Gy + JP4-039 (after irradiation), day 3); 0 (0-0.3) per 10^6 cells in data set [3] (29 Gy + JP4-039 (after irradiation), day 7); 0.85 (0-4.15) per 10^6 cells in data set [3] (29 Gy + JP4-039 (after irradiation), day 28); 0.9 (0.3-2.6) per 10^6 cells in data set [3] (JP4-039 + 29 Gy (before irradiation), day 1); 0.3 (0-3.1) per 10^6 cells in data set [3] (JP4-039 + 29 Gy (before irradiation), day 3). Further, the “number of GFP+ cells per 10^6 cells in the esophagus, median (inter-quartile range)” value in data set [3] (JP4-039 + 29 Gy (before irradiation), day 7) was 0.28 (0.13-0.65) per 10^6 cells; in data set [3] (JP4-039 + 29 Gy (before irradiation), day 28), 0 (0-0) per 10^6 cells; in data set [3] (JP4-039 + 29 Gy (before irradiation), day 60), 0 (0-0) per 10^6 cells. Moreover, the “time of peak level in liver” value in data set [4] (setting [7]) worked out at 10 min. Besides, the “time of peak level in orthotopic tumor” value in data set [4] (setting [7]) amounted to 30 min. For the same compound, the “time of peak level in peripheral blood” value in data set [4] (setting [7]) was 30 min. For the same compound, the “peak JP4-039 level in orthotopic tumor” value in data set [4] (intraesophageal, F15 formulation, 3LL tumor, at 30 minutes, EPR) worked out at 276.0 pmol/mg protein. In addition, in data set [4] (intraesophageal, F15 formulation, at 10 minutes, EPR), the “peak JP4-039 level in liver” value was 122/2. The “peak JP4-039 level in peripheral blood” value in data set [4] (intraesophageal, F15 formulation, at 30 minutes, EPR) is recorded as 51.1 pmol/mg protein. The “JP4-039 level in bone marrow compared to liver and tumor tissue” value in data set [4] (up to 60 minutes after drug swallow) is listed as “Lower levels”. Moreover, the “ñ (shoulder on the survival curve)” value in data set [5] (10 μM for 1 hour before irradiation, cells alone 1.29±0.13, p=0.0109) is listed as 5.25±0.84; in data set [5] (10 μM in methylcellulose after irradiation, cells alone 1.29±0.13, p=0.0022), 4.55±0.47. Also, the “survival of 32D c13 cells” value in data set [5] (10 μM for one hour, 0-8 Gy irradiation, preliminary data) is “increased survival”. In data set [6] (GFP+ marrow chimeric mice), the “uptake in GFP+ esophageal (SP) stem cells” value was “reaches GFP+ esophageal (SP) stem cells”. The “uptake in esophageal SP cells” value in data set [6] (preliminary data) is reported as “reaches SP cells”.

The record behind these values is patent US20190210969A1, “INTRAESOPHAGEAL ADMINISTRATION OF TARGETED NITROXIDE AGENTS FOR PROTECTION AGAINST IONIZING IRRADIATION-INDUCED ESOPHAGITIS” (University of Pittsburgh - Of the Commonwealth System of …, priority 2010, published 2019).
